Results: paper PMC8632988, “Inhibition of SYK and cSrc kinases can protect bone and cartilage in preclinical models of osteoarthritis and rheumatoid arthritis” (Scientific Reports, 2021)
“And” between values parts separate entries of the source, which are not always exact repeats. Identical values can stand only once.

What was measured:
c-Src = target: T1, c-Src (Homo sapiens, UniProt P12931); test: cSrc inhibition and kinase selectivity profile assay; type: biochemical
T1 construct: purchased Reaction Biology Corporation (assay service)
T1 sequence (P12931 whole entry): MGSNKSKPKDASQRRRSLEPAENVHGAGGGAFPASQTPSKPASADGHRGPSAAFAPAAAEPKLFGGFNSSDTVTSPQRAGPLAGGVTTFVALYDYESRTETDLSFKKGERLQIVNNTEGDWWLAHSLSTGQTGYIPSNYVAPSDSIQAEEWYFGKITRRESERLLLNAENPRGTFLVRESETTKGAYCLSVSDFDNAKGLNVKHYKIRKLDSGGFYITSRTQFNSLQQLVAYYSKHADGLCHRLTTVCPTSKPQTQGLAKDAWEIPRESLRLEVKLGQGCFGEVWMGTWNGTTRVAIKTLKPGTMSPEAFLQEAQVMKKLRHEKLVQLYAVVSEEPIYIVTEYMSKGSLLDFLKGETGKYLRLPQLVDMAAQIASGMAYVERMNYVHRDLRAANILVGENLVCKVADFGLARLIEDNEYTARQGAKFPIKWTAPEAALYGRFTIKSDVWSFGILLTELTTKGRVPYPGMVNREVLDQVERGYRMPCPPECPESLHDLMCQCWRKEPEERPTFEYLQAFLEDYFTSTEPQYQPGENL
Method: (§1) The activity of MT-SYK-03 against cSrc kinase and selectivity profile towards other 341 kinases was determined at Reaction Biology Corporation (Malvern, PA, USA) using the standard kinase assay protocol. […]; unbound phosphate was removed by extensive washing of filters in phosphoric acid. Kinase activity data was expressed as the percent remaining kinase activity in test samples compared to vehicle (dimethyl sulfoxide) reactions based on the radioactivity of reaction products (see Table S2). Experiment was replicated twice.

DYRK4 = target: T2, DYRK4 (Homo sapiens, UniProt Q9NR20); test: Kinase selectivity profile assay; type: biochemical; details: 500 nM; relative to DMSO; read-out: Residual enzymatic activity
T2 construct: purchased Reaction Biology Corporation
T2 sequence (Q9NR20 whole entry): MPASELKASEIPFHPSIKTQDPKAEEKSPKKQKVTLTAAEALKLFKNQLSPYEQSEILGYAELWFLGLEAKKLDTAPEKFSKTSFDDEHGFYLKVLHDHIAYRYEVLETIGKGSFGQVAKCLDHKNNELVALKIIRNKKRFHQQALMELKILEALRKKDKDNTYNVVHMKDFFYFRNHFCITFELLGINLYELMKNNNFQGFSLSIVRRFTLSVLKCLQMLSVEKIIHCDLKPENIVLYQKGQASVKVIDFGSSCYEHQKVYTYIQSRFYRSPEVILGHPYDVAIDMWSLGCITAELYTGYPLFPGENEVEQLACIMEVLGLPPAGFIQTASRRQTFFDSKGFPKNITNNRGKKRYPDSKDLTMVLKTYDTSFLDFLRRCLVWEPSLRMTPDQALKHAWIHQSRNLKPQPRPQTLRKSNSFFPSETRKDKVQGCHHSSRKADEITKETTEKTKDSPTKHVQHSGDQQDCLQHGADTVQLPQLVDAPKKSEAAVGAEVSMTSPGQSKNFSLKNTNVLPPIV
Method: The activity of MT-SYK-03 against cSrc kinase and selectivity profile towards other 341 kinases was determined at Reaction Biology Corporation (Malvern, PA, USA) using the standard kinase assay protocol. […] Kinase activity data was expressed as the percent remaining kinase activity in test samples compared to vehicle (dimethyl sulfoxide) reactions based on the radioactivity of reaction products (see Table S2). Experiment was replicated twice.

mongrel rats, AIA model = test: Adjuvant-induced arthritis in rats; type: in vivo
Method: Rat adjuvant-induced arthritis (AIA) model was performed at Pharmenterprises, Russia as described previously^3 and approved by Ethics Committee of Pharmenterprises. Male 10 week old mongrel rats were divided into eleven groups: negative control (#1), positive control (#2) and nine treatment groups (#3–11), ten […] in each group. Group #1 was left intact, while subplantar injection of 0.1 mL of Complete Freund’s adjuvant (CFA, Sigma) was made on day 0 at right paws of rats in groups […]. […] Disease progression was monitored by measuring volumes of the right (involved) and left (non-involved) paws on days 0, 14, 18, 21, 25, and 28.

TXK = target: T3, TXK (Homo sapiens, UniProt P42681); test: Kinase selectivity profile assay; type: biochemical
T3 construct: purchased Reaction Biology Corporation (Malvern, PA, USA)
T3 sequence (P42681 1-527): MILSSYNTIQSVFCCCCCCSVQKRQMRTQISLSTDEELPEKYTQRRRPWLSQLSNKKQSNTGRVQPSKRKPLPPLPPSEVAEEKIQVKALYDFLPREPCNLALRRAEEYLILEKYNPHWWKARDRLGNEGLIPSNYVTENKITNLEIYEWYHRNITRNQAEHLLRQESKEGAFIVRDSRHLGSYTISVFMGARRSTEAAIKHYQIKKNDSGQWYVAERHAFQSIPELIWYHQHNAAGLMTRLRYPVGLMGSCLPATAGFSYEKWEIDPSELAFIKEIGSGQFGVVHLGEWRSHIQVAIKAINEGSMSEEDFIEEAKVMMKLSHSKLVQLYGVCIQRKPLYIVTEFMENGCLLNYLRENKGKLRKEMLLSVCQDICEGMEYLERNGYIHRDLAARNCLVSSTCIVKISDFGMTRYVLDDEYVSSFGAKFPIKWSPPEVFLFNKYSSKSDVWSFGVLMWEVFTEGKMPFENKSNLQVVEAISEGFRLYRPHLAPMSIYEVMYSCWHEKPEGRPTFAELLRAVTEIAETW
Method in brief: (§2)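 Radiometric kinase assay run by a standard protocol. Unbound phosphate was removed by washing filters in phosphoric acid, and product radioactivity gave percent remaining kinase activity versus DMSO vehicle reactions. Run in duplicate.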

FLT4/VEGFR3 = target: T4, FLT4/VEGFR3 (Homo sapiens, UniProt P35916); test: Kinase selectivity profile assay; type: biochemical
T4 construct: purchased Reaction Biology Corporation (assay service)
T4 sequence (P35916 25-1363): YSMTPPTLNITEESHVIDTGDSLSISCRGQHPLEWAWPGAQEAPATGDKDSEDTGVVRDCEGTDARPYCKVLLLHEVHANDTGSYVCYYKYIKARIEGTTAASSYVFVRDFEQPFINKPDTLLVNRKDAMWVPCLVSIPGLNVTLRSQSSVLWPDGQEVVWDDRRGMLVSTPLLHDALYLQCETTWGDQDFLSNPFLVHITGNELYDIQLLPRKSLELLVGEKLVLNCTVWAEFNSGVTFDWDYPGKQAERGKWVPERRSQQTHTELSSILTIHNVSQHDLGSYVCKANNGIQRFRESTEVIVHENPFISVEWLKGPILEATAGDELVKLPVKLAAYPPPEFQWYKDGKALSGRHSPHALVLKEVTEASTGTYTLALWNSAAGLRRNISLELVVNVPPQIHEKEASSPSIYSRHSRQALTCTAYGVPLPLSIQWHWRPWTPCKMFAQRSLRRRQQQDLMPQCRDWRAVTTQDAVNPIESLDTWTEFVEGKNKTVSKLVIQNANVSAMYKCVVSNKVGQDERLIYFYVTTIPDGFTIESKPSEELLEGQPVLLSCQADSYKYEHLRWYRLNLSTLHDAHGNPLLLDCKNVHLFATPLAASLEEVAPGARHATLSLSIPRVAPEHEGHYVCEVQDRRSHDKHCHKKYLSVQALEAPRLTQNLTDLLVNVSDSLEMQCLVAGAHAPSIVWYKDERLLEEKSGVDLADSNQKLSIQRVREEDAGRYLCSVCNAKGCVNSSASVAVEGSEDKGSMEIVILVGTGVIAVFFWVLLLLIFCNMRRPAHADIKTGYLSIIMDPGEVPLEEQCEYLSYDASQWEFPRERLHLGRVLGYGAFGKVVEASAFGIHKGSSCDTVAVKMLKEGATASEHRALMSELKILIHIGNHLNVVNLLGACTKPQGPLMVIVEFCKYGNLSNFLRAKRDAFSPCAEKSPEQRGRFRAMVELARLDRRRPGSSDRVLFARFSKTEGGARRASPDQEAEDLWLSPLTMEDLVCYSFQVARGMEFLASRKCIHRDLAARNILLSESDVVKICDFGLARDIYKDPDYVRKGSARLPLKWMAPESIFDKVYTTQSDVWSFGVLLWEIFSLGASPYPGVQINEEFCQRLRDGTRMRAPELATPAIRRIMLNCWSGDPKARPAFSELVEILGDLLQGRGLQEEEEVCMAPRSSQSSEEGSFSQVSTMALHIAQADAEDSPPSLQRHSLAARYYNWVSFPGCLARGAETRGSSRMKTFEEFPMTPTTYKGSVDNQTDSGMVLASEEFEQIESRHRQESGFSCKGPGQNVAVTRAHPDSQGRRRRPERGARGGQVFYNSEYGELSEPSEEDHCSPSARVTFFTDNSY
Method in brief: as §2

DYRK3 = target: T5, DYRK3 (Homo sapiens, UniProt O43781); test: Kinase selectivity profile assay; type: biochemical; details: 500 nM; relative to DMSO; read-out: Residual enzymatic activity
T5 construct: purchased Reaction Biology Corporation
T5 sequence (O43781 whole entry): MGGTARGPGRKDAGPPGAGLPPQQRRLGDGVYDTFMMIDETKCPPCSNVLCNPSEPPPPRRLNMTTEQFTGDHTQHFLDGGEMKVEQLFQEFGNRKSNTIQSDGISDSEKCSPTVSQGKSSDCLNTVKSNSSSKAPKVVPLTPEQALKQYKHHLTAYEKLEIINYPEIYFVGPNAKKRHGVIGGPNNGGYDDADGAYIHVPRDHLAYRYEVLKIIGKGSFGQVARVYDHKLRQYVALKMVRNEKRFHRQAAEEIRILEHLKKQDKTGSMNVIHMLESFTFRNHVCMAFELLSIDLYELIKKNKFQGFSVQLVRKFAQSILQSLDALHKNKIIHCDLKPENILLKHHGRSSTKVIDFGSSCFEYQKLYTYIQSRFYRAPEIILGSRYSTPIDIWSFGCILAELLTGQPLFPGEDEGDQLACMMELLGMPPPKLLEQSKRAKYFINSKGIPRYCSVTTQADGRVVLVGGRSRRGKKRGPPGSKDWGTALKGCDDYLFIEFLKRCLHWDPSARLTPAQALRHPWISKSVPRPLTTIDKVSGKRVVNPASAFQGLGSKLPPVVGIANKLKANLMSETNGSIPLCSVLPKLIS
Method in brief: as §2

CDK6/cyclin D3 = target: T6, CDK6/cyclin D3 (Homo sapiens, UniProt Q00534); test: Kinase selectivity profile assay; type: biochemical; details: 500 nM; relative to DMSO; read-out: Residual enzymatic activity
T6 construct: purchased Reaction Biology Corporation
T6 sequence (Q00534 whole entry): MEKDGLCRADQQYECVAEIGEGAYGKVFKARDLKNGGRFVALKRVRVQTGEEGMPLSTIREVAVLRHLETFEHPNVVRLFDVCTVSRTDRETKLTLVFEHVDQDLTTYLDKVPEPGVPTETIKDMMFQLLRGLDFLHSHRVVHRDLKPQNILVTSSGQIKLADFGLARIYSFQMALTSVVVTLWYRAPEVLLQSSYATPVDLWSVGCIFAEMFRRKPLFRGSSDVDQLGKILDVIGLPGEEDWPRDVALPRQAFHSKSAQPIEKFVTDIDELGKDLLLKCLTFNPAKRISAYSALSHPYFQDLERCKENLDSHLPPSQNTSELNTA
T6 sequence (P30281 whole entry partner): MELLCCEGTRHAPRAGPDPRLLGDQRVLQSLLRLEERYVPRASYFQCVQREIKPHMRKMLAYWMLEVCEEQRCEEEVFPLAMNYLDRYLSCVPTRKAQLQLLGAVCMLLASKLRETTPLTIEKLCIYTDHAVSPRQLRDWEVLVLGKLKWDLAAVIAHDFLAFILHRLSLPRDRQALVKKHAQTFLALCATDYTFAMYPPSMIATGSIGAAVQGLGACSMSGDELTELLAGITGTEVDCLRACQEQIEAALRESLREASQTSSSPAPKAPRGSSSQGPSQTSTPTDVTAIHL
Method in brief: as §2

PAK4 = target: T7, PAK4 (Homo sapiens, UniProt O96013); test: Kinase selectivity profile assay; type: biochemical; details: 500 nM; relative to DMSO; read-out: Residual enzymatic activity
T7 construct: purchased Reaction Biology Corporation
T7 sequence (O96013 whole entry): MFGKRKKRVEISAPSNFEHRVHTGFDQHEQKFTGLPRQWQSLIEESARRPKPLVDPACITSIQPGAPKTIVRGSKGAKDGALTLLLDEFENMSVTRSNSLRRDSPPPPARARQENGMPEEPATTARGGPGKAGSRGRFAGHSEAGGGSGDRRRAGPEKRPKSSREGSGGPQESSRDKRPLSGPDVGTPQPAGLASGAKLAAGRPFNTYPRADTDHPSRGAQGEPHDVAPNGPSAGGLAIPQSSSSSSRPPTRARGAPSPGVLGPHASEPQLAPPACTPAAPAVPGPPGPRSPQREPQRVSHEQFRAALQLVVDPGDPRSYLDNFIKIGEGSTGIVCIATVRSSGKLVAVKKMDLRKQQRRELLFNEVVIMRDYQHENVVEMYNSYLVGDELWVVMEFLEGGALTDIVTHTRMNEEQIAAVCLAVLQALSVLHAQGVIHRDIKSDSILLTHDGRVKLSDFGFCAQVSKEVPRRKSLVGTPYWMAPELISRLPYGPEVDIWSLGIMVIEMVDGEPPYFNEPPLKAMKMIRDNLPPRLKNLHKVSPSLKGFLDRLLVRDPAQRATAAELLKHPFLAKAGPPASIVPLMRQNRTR
Method in brief: as §2

CAMK2d = target: T8, CAMK2d (Homo sapiens, UniProt Q13557); test: Kinase selectivity profile assay; type: biochemical; details: read-out: Residual enzymatic activity
T8 construct: purchased Reaction Biology Corporation
T8 sequence (Q13557 whole entry): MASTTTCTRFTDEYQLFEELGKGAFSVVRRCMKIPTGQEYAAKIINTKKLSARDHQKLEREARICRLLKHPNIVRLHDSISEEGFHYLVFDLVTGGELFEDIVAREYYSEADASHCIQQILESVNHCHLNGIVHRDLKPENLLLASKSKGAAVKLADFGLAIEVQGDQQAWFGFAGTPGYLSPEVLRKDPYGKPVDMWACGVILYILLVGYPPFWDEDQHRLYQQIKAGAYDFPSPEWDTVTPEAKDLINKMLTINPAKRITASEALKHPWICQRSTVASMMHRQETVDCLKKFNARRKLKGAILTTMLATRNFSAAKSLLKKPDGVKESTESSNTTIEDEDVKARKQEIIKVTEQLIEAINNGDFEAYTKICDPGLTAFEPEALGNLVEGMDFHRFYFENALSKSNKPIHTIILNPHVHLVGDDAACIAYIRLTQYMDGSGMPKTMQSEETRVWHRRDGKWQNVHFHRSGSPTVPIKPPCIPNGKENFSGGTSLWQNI
Method in brief: as §2

341 kinases = test: Kinase selectivity profile, whole panel; type: biochemical, human; details: 500 nM
Method: as §1

[1] = 500 nM, relative to DMSO, read-out: Residual enzymatic activity
[2] = 10-dose mode, threefold serial dilution from 10 μM

Structure (SMILES): COc1cc(Nc2ncnc(Nc3cc4c(cn3)NC(=O)C(C)(C)O4)n2)cc(OC)c1OC [MT-SYK-03]
- IC50 (c-Src): 14.2 nM and 23 to 40 nM and 14 nM
- remaining activity at 0.5 µM (c-Src; [1]): 6.2%
- remaining activity at 0.5 µM (DYRK4): 104%
- Animal death (mongrel rats, AIA model; MT-SYK-03 52 mg/kg BID intragastric, 14 days): 0%
- Animal death (mongrel rats, AIA model; MT-SYK-03 52 mg/kg BID intragastric, 18 days): 0%
- Animal death (mongrel rats, AIA model; MT-SYK-03 52 mg/kg BID intragastric, 21 days): 0%
- Animal death (mongrel rats, AIA model; MT-SYK-03 52 mg/kg BID intragastric, 25 days): 0%
- Animal death (mongrel rats, AIA model; MT-SYK-03 52 mg/kg BID intragastric, 28 days): 0%
- Animal death (mongrel rats, AIA model; MT-SYK-03 103 mg/kg BID intragastric, 14 days): 0%
- Animal death (mongrel rats, AIA model; MT-SYK-03 103 mg/kg BID intragastric, 18 days): 0%
- Animal death (mongrel rats, AIA model; MT-SYK-03 103 mg/kg BID intragastric, 21 days): 0%
- Animal death (mongrel rats, AIA model; MT-SYK-03 103 mg/kg BID intragastric, 25 days): 0%
- Animal death (mongrel rats, AIA model; MT-SYK-03 103 mg/kg BID intragastric, 28 days): 0%
- Animal death (mongrel rats, AIA model; MT-SYK-03 207 mg/kg QD intragastric, 14 days): 0%
- Animal death (mongrel rats, AIA model; MT-SYK-03 207 mg/kg QD intragastric, 18 days): 0%
- Animal death (mongrel rats, AIA model; MT-SYK-03 207 mg/kg QD intragastric, 21 days): 0%
- Animal death (mongrel rats, AIA model; MT-SYK-03 207 mg/kg QD intragastric, 25 days): 0%
- Animal death (mongrel rats, AIA model; MT-SYK-03 207 mg/kg QD intragastric, 28 days): 0%
- The increase in the volume of the paws relative to the initial level (mongrel rats, AIA model; non-involved paws, MT-SYK-03 52 mg/kg BID intragastric, 18 days): 22.55±2.93& %
- The increase in the volume of the paws relative to the initial level (mongrel rats, AIA model; non-involved paws, MT-SYK-03 52 mg/kg BID intragastric, 21 days): 23.66±3.25& %
- The increase in the volume of the paws relative to the initial level (mongrel rats, AIA model; non-involved paws, MT-SYK-03 52 mg/kg BID intragastric, 25 days): 24.39±2.8& %
- The increase in the volume of the paws relative to the initial level (mongrel rats, AIA model; non-involved paws, MT-SYK-03 52 mg/kg BID intragastric, 28 days): 25.25±2.86& %
- The increase in the volume of the paws relative to the initial level (mongrel rats, AIA model; non-involved paws, MT-SYK-03 103 mg/kg BID intragastric, 14 days): 11.22±1.26& %
- The increase in the volume of the paws relative to the initial level (mongrel rats, AIA model; non-involved paws, MT-SYK-03 103 mg/kg BID intragastric, 18 days): 17.42±1.16& %
- The increase in the volume of the paws relative to the initial level (mongrel rats, AIA model; non-involved paws, MT-SYK-03 103 mg/kg BID intragastric, 21 days): 20.38±2.11& %
- The increase in the volume of the paws relative to the initial level (mongrel rats, AIA model; non-involved paws, MT-SYK-03 103 mg/kg BID intragastric, 25 days): 22.35±2.28& %
- The increase in the volume of the paws relative to the initial level (mongrel rats, AIA model; non-involved paws, MT-SYK-03 103 mg/kg BID intragastric, 28 days): 21.41±2.05&# %
- The increase in the volume of the paws relative to the initial level (mongrel rats, AIA model; non-involved paws, MT-SYK-03 207 mg/kg QD intragastric, 14 days): 14.3±1.82& %
- The increase in the volume of the paws relative to the initial level (mongrel rats, AIA model; non-involved paws, MT-SYK-03 207 mg/kg QD intragastric, 18 days): 19.97±1.89& %
- The increase in the volume of the paws relative to the initial level (mongrel rats, AIA model; non-involved paws, MT-SYK-03 207 mg/kg QD intragastric, 21 days): 21.15±1.89& %
- The increase in the volume of the paws relative to the initial level (mongrel rats, AIA model; non-involved paws, MT-SYK-03 207 mg/kg QD intragastric, 25 days): 22.51±1.61& %
- The increase in the volume of the paws relative to the initial level (mongrel rats, AIA model; non-involved paws, MT-SYK-03 207 mg/kg QD intragastric, 28 days): 21.94±1.37&# %
- The increase in the volume of the paws relative to the initial level (mongrel rats, AIA model; po, 52 mg/kg, 336 h): 13.93±1.83& %
- Rats died (mongrel rats, AIA model; rat AIA, MT-SYK-03): 0%
- Volume of non-involved paws (mongrel rats, AIA model; rat AIA, MT-SYK-03 103 and 207 mg/kg, day 28): decreased the volume of non-involved paws
- The increase in the volume of the paws relative to the initial level (mongrel rats, AIA model; treated paws, MT-SYK-03 52 mg/kg BID intragastric, 14 days): 77.6 ± 4.53 & %
- The increase in the volume of the paws relative to the initial level (mongrel rats, AIA model; treated paws, MT-SYK-03 52 mg/kg BID intragastric, 18 days): 85.72 ± 3.7 & %
- The increase in the volume of the paws relative to the initial level (mongrel rats, AIA model; treated paws, MT-SYK-03 52 mg/kg BID intragastric, 21 days): 88.24 ± 4.4 & %
- The increase in the volume of the paws relative to the initial level (mongrel rats, AIA model; treated paws, MT-SYK-03 52 mg/kg BID intragastric, 25 days): 94.75 ± 7.18 & %
- The increase in the volume of the paws relative to the initial level (mongrel rats, AIA model; treated paws, MT-SYK-03 52 mg/kg BID intragastric, 28 days): 93.88 ± 6.77 & %
- The increase in the volume of the paws relative to the initial level (mongrel rats, AIA model; treated paws, MT-SYK-03 103 mg/kg BID intragastric, 14 days): 76.18 ± 7.73 & %
- The increase in the volume of the paws relative to the initial level (mongrel rats, AIA model; treated paws, MT-SYK-03 103 mg/kg BID intragastric, 18 days): 85.98 ± 7.51 & %
- The increase in the volume of the paws relative to the initial level (mongrel rats, AIA model; treated paws, MT-SYK-03 103 mg/kg BID intragastric, 21 days): 86.55 ± 8.13 & %
- The increase in the volume of the paws relative to the initial level (mongrel rats, AIA model; treated paws, MT-SYK-03 103 mg/kg BID intragastric, 25 days): 86.47 ± 7.89 & %
- The increase in the volume of the paws relative to the initial level (mongrel rats, AIA model; treated paws, MT-SYK-03 103 mg/kg BID intragastric, 28 days): 89.02 ± 7.37 & %
- The increase in the volume of the paws relative to the initial level (mongrel rats, AIA model; treated paws, MT-SYK-03 207 mg/kg QD intragastric, 14 days): 81.54 ± 6.88 & %
- The increase in the volume of the paws relative to the initial level (mongrel rats, AIA model; treated paws, MT-SYK-03 207 mg/kg QD intragastric, 18 days): 82.92 ± 6.64 & %
- The increase in the volume of the paws relative to the initial level (mongrel rats, AIA model; treated paws, MT-SYK-03 207 mg/kg QD intragastric, 21 days): 83.22 ± 6.53 & %
- The increase in the volume of the paws relative to the initial level (mongrel rats, AIA model; treated paws, MT-SYK-03 207 mg/kg QD intragastric, 25 days): 88.58 ± 7.8 & %
- The increase in the volume of the paws relative to the initial level (mongrel rats, AIA model; treated paws, MT-SYK-03 207 mg/kg QD intragastric, 28 days): 93.67 ± 9.08 & %
- remaining activity at 0.5 µM (TXK; [1]): 35.4%
- IC50 (TXK; [2]): 222 nM
- remaining activity at 0.5 µM (FLT4/VEGFR3; [1]): 40.4%
- IC50 (FLT4/VEGFR3; [2]): 55.4 nM
- remaining activity at 0.5 µM (DYRK3): 91.6%
- remaining activity at 0.5 µM (CDK6/cyclin D3): 101%
- remaining activity at 0.5 µM (PAK4): 92.1%
- remaining activity at 0.5 µM (CAMK2d): 104%
- Number of kinases inhibited by more than 50% (341 kinases): 34 kinases
- Number of kinases inhibited by more than 80% (341 kinases): 13 kinases
- Number of kinases inhibited by more than 90% (341 kinases): five
